Data from patent US11179412B2, “Methods of treating conditions involving elevated inflammatory response” (University of Pittsburgh—Of the Commonwealth System of …, priority 2017, dated 2021).
“Also recorded” adds a separate entry of the source. Counter-ions that a name gives are not always drawn.

Key:
[1] = tested on: STING activation (IFNβ release) in iBMDMs; assay: IFNβ release ELISA after STING ligand (or LPS) stimulation, iBMDMs; assay type: cell-based, mouse; conditions: iBMDMs; 3′3′-cGAMP 10 μg/ml, 16 hours; compound 10 μM
Summary of the method: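 iBMDMs were stimulated with a STING ligand such as 3′3′-cGAMP, or with LPS. Secreted IFNβ in culture medium was measured by commercial mouse or human IFNβ ELISA.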

iBMDMs = assay: Cell viability assay (CCK-8), iBMDMs; assay type: cell-based, mouse; conditions: 3′3′-cGAMP 10 μg/ml, ALK inhibitor 10 μM, 16 hours
Description: (§1) Cells were seeded into 96-well plates and incubated with the indicated treatments. Subsequently, 100 μl fresh medium was added to cells containing 10 μl Cell Counting Kit-8 (CCK-8) solutions (Dojindo Laboratories) and incubated for 1 h (37° C., 5% CO2). Absorbance at 450 nm was measured using a microplate reader (Tecan).

pPMs = assay: Cell viability assay (CCK-8), pPMs; assay type: cell-based, mouse; conditions: 3′3′-cGAMP 10 μg/ml, ALK inhibitor 10 μM, 16 hours
Description: as §1

RAW264.7 cells = assay: Cell viability assay (CCK-8), RAW264.7; assay type: cell-based, mouse; conditions: 3′3′-cGAMP 10 μg/ml, ALK inhibitor 10 μM, 16 hours
Description: as §1

THP1 cells = assay: Cell viability assay (CCK-8), THP1; assay type: cell-based, human; conditions: 3′3′-cGAMP 10 μg/ml, ALK inhibitor 10 μM, 16 hours
Description: as §1

[2] = tested on: STING signaling (TBK1, IRF3, p65, ALK, EGFR, AKT phosphorylation) in iBMDMs; assay: Western blot of STING pathway protein phosphorylation, iBMDMs; assay type: cell-based, mouse; conditions: 16 hours, 10 μM
Description: (§2) For immunoblotting, cells were lysed in Cell Lysis Buffer (#9803, Cell Signaling Technology) with protease inhibitor cocktail (Promega), phosphatase inhibitor cocktail (Sigma), and 1 mM Na3VO4 (70). Cleared lysates were resolved by SDS-PAGE (#3450124, Bio-Rad) and then transferred onto PVDF membranes (#1704273, Bio-Rad). The membranes were blocked with Tris-buffered saline Tween 20 (TBST) containing 5% skim milk for 1 h at room temperature and then incubated with the indicated primary antibodies (1:1000-1:5000) overnight at 4° C. After being washed with TBST, the membranes were incubated with an HRP-linked anti-mouse IgG secondary antibody (#7076, Cell Signaling Technology) or HRP-linked anti-rabbit IgG secondary antibody (#7074, Cell Signaling Technology) for 1 h at room temperature. The membranes were washed three times in TBST and then visualized and analyzed with a ChemiDoc Touch Imaging System (#1708370, Bio-Rad). The intensities of bands were analyzed with Image Lab software.

[3] = tested on: STING signaling (TBK1, IRF3, p65, ALK, EGFR, AKT phosphorylation) in RAW264.7 cells; assay: Western blot of STING pathway protein phosphorylation, RAW264.7; assay type: cell-based, mouse; conditions: 16 hours, 10 μM
Description: as §2

[4] = tested on: STING signaling (TBK1, IRF3, p65, ALK, EGFR, AKT phosphorylation) in THP1 cells; assay: Western blot of STING pathway protein phosphorylation, THP1; assay type: cell-based, human; conditions: 16 hours, 10 μM
Description: as §2

[5] = tested on: STING activation (IFNβ release) in pPMs; assay: IFNβ release ELISA, primary peritoneal macrophages (pPMs); assay type: cell-based, mouse; conditions: mouse pPMs; 3′3′-cGAMP 10 μg/ml, 16 hours; compound 10 μM
Description: Mouse pPMs were isolated from C57BL/6J mice as previously described (69). In brief, eight-week-old female or male C57BL/6J mice were injected with 3.0% thioglycollate medium (2 mL/mouse) into the peritoneum. Three days after injection, mice were sacrificed and injected with 3 mL of 0.05% EDTA-PBS into the peritoneum to harvest peritoneal macrophages. Collected cells were centrifuged at 1000 rpm for 5 min at 4° C., and the cell pellet was washed with PBS and centrifuged again. The cell pellet was then suspended in Dulbecco's Modified Eagle Medium supplemented with 10% FBS and 1× Penicillin-Streptomycin and cultured in a culture dish.
(§3) Macrophages or monocytes were treated with 3′3′-cGAMP (10 μg/ml, Invitrogen) for 16 hours in the absence or presence of one compound (10 μM) from the Target-selective Inhibitory Library (#L3500, Selleck Chemicals). Commercially available enzyme-linked immunosorbent assay (ELISA) kits were used to measure the concentrations of mouse IFNβ (Thermo Fisher Scientific) or human IFNβ (Thermo Fisher Scientific) in culture medium according to the manufacturer's instructions.

[6] = tested on: STING activation (IFNβ release) in pPBMCs; assay: IFNβ release ELISA, primary peripheral blood mononuclear cells (pPBMCs); assay type: cell-based; conditions: human pPBMCs; 3′3′-cGAMP 10 μg/ml, 16 hours; compound 10 μM
Description: as §3

[7] = 3′3′-cGAMP or c-di-AMP 10 μg/ml

| Structure (SMILES) | fold increase in IFN-β release [1] [fold] | also measured |
| --- | --- | --- |
| COc1cc(N2CCC(N3CCN(C)CC3)CC2)ccc1Nc1ncc(Cl)c(Nc2ccccc2P(C)(C)=O)n1 [AP26113] | 0.19 | cell viability (iBMDMs): did not affect cell viability; cell viability (pPMs): did not affect cell viability; cell viability (RAW264.7 cells): did not affect cell viability; cell viability (THP1 cells): did not affect cell viability |
| CC(C)NC[C@@H](C(=O)N1CCN(c2ncnc3c2[C@H](C)C[C@H]3O)CC1)c1ccc(Cl)cc1 [GDC-0068] | 0.86 | STING ligand-induced phosphorylation of TBK1, IRF3, and p65 [2, 7]: diminished; 3′3′-cGAMP- or c-di-AMP-induced phosphorylation of ALK, EGFR, and AKT ([2]; ligand 10 μg/ml): only blocked the phosphorylation of AKT, but not ALK or EGFR; STING ligand-induced phosphorylation of TBK1, IRF3, and p65 [3, 7]: diminished; 3′3′-cGAMP- or c-di-AMP-induced phosphorylation of ALK, EGFR, and AKT ([3]; ligand 10 μg/ml): only blocked the phosphorylation of AKT, but not ALK or EGFR; STING ligand-induced phosphorylation of TBK1, IRF3, and p65 [4, 7]: diminished; 3′3′-cGAMP- or c-di-AMP-induced phosphorylation of ALK, EGFR, and AKT ([4]; ligand 10 μg/ml): only blocked the phosphorylation of AKT, but not ALK or EGFR |
| Cl.NC(=O)c1cnc(N[C@@H]2CCCC[C@@H]2N)nc1Nc1cccc(-n2nccn2)c1 [PRT062607 (P505-15, BIIB057) HCl] | 0.07 | 3′3′-cGAMP-induced IFNβ release [1]: blocked; 3′3′-cGAMP-induced IFNβ release [5]: confirmed their inhibitory properties; 3′3′-cGAMP-induced IFNβ release [6]: confirmed their inhibitory properties |
| COc1cc(N2CCC(N)CC2)ccc1Nc1ncc(Cl)c(-c2c[nH]c3ccccc23)n1 [AZD3463] | 0.05 | 3′3′-cGAMP-induced IFNβ release [1]: blocked; also recorded: diminished; 3′3′-cGAMP-induced IFNβ release [5]: confirmed their inhibitory properties; 3′3′-cGAMP-induced IFNβ release [6]: confirmed their inhibitory properties; cell viability (iBMDMs): exhibited cytotoxicity; cell viability (pPMs): exhibited cytotoxicity; cell viability (RAW264.7 cells): exhibited cytotoxicity; cell viability (THP1 cells): exhibited cytotoxicity |
| O=C(/C=C\n1cnc(-c2cc(C(F)(F)F)cc(C(F)(F)F)c2)n1)NNc1cnccn1 [KPT-330] | 0.05 | 3′3′-cGAMP-induced IFNβ release [1]: blocked; 3′3′-cGAMP-induced IFNβ release [5]: confirmed their inhibitory properties; 3′3′-cGAMP-induced IFNβ release [6]: confirmed their inhibitory properties |
| C[C@@H]1CN(CC(=O)Nc2ccc3c(c2)Cc2cccc(-c4cc(=O)cc(N5CCOCC5)o4)c2S3)C[C@H](C)O1 [KU-60019] | 0.06 | 3′3′-cGAMP-induced IFNβ release [1]: blocked; 3′3′-cGAMP-induced IFNβ release [5]: confirmed their inhibitory properties; 3′3′-cGAMP-induced IFNβ release [6]: confirmed their inhibitory properties |
| C[C@H]1COC2=C1C(=O)C(=O)c1c2ccc2c1CCCC2(C)C [Cryptotanshinone] | 0.17 |  |
| CCn1c2ccccc2c2cc(Nc3ccnc(NCCCN4CCOCC4)n3)ccc21 [EHop-016] | 1.69 |  |
| O=C(Nc1nc2cccc(-c3ccc(CN4CCS(=O)(=O)CC4)cc3)n2n1)C1CC1 [Filgotinib (GLPG0634), Filgotinib] | 2.35 |  |
| CCN(CC)CCNC(=O)c1cc(Cl)c(N)cc1OC [MetoclopraMide HCl] | 2.14 |  |
| CO[C@H]1C[C@@H]2CC[C@@H](C)[C@@](O)(O2)C(=O)C(=O)N2CCCC[C@H]2C(=O)O[C@H]([C@H](C)C[C@@H]2CC[C@@H](OC(=O)C(C)(CO)CO)[C@H](OC)C2)CC(=O)[C@H](C)/C=C(\C)[C@@H](O)[C@@H](OC)C(=O)[C@H](C)C[C@H](C)/C=C/C=C/C=C/1C [Temsirolimus (CCI-779, NSC 683864), Temsirolimus] | 0.73 |  |
| C#Cc1cccc(Nc2ncnc3cc4c(cc23)OCCOCCOCCO4)c1 [Icotinib] | 0.57 |  |
| COc1ccc(COc2ccc(Cc3cnc(N)nc3N)cc2OC)cc1 [GW2580] | 1.21 |  |
| C[S+]([O-])c1ccc(-c2nc(-c3ccc(F)cc3)c(-c3ccncc3)[nH]2)cc1 (stereo not drawn) [SB203580] | 0.35 |  |
| Cl.NCc1c[nH]c(=S)n1[C@@H]1CCc2c(F)cc(F)cc2C1 [(R)-Nepicastat HCl] | 2.13 |  |
| CN1CCc2cc3c(cc2[C@H]1[C@@H]1OC(=O)c2c1ccc1c2OCO1)OCO3 [(+)-Bicuculline] | 1.26 |  |

| Structure (SMILES) | fold increase in IFN-β release [1] [fold] | also measured |
| --- | --- | --- |
| CNC(=C[N+](=O)[O-])NCCSCc1ccc(CN(C)C)o1 [Ranitidine] | 2.87 |  |
| Cn1cc(-c2ccc3c(c2)CCN3C(=O)Cc2cccc(C(F)(F)F)c2)c2c(N)ncnc21 [GSK2606414] | 1.40 |  |
| CC(C)(C)c1cc(/C=C(\C#N)C(N)=S)cc(C(C)(C)C)c1O [Tyrphostin AG 879] | 1.99 |  |
| CCOC(=O)c1ccc(NC2CCCCC2)c(N)c1 [Ferrostatin-1 (Fer-1), Ferrostatin-1] | 2.54 |  |
| CC[C@@H]1C(=O)N(C)c2cnc(Nc3ccc(C(=O)NC4CCN(C)CC4)cc3OC)nc2N1C1CCCC1 [BI 2536] | 0.45 |  |
| Nc1ncnc2c1c(-c1cccc(OCc3ccccc3)c1)cn2C1CC(CN2CCCC2)C1 (stereo not drawn) [NVP-ADW742] | 0.61 |  |
| O=c1cc(-c2cccc3c2Sc2ccccc2S3)oc(N2CCOCC2)c1 [KU-55933 (ATM Kinase Inhibitor)] | 0.33 |  |
| C=C1C(=O)O[C@@H]2/C=C(\C)CC/C=C(\C)CC[C@@H]12 [Costunolide] | 0.37 |  |
| O=C(Nc1cc(C(F)(F)F)ccc1N1CCCCC1)c1ccncc1 [SRPIN340] | 2.38 |  |
| COc1cc(-c2ncn(/C=C\C(=O)OC(C)C)n2)cc(C(F)(F)F)c1 [KPT-185] | 0.59 |  |
| O=C(O)/C=C/c1ccc(Cn2ccnc2)cc1 [Ozagrel] | 0.11 |  |
| CCn1c(-c2nonc2N)nc2c(C#CC(C)(C)O)ncc(OC[C@H]3CCCNC3)c21 [GSK690693] | 1.12 |  |
| CCc1c2c(nc3ccc(OC(=O)N4CCC(N5CCCCC5)CC4)cc13)-c1cc3c(c(=O)n1C2)COC(=O)[C@]3(O)CC [Irinotecan] | 1.13 |  |
| COc1cccc(C=NCCN=Cc2cccc(OC)c2[O-])c1[O-].[Cl-].[Mn+3] [EUK 134] | 1.10 |  |
| O=C(/C=C/c1cccc(S(=O)(=O)Nc2ccccc2)c1)NO [Belinostat (PXD101), Belinostat] | 0.70 |  |
